This note sets out measurements from PubChem BioAssay AID1996.

SMILES strings stand for the structures. Values after ≈ are worked out from the molar mass of the structure shown.

For the data set the following is noted: buffer; pH 7.4; 200.0 µM.
Regarding `COc1cc2nc(Cl)nc(N3CCCCC3)c2cc1OC`, the kinetic solubility was 1.2 µg/mL (≈ 3.9 µM). Under `Cc1cc[n+](C(C)C(=O)c2ccc(Cl)cc2)cc1.[Br-]` (configuration not stated) stands above 51.1 µg/mL; under `O=C(Nc1ccc2c(c1)OCO2)C1CC(=O)N(c2cccc(Cl)c2)C1` (configuration not stated), 0.9 µg/mL (≈ 2.51 µM). To `S=C(Nc1ccc(Cl)c(Cl)c1)N1CCCC1` belongs 3.3 µg/mL (≈ 12 µM). To `COc1ccccc1C(=O)Nc1ccccc1C(=O)Nc1ccccc1` belongs below 0.4 µg/mL. The molecule `CC(=O)N1CCN(C(=S)Nc2ccc(SC(F)F)cc2)CC1` displayed a solubility (kinetic) above 51.8 µg/mL. Under `Cc1ccc(NC(=O)C2CCCCC2C(=O)O)cc1C` (configuration not stated) stands 40.4 µg/mL (≈ 147 µM). The molecule `CCc1ccc(NC(=O)CCc2ccc(CC)o2)cc1` registered a solubility (kinetic) of 4 µg/mL (≈ 14.7 µM). To `O=C(COC(=O)Cn1cnc2ccccc2c1=O)Nc1ccccc1OC(F)F` belongs 15.8 µg/mL (≈ 39.2 µM); to `Cc1c(C)n(CCc2ccccc2)c2ncnc(NCCO)c12`, above 46.6 µg/mL. Take `CC(=O)c1ccc(N2CCN(CC3CCCCC3)CC2)cc1`: the solubility (kinetic) was determined as 22 µg/mL (≈ 73.2 µM). `O=C1CC(=O)N(c2cccc(F)c2)C(=O)N1` registered a kinetic solubility above 33.3 µg/mL. Under `O=C(c1cc2c(s1)CCCC2)N1CCN(c2ccccc2)CC1` stands 1.5 µg/mL (≈ 4.59 µM). To `Cc1ccc(S(=O)(=O)CCC(=O)NC2CCCCC2)cc1` belongs above 46.4 µg/mL; to `Cc1ccc(S(=O)(=O)NC(=O)NC(C)Cc2ccccc2)cc1` (configuration not stated), above 49.9 µg/mL; to `O=C(NCc1cccnc1)Nc1ccccc1C(F)(F)F`, above 44.3 µg/mL.

For the molecule `O=C1c2ccccc2C2(c3cc(C(F)(F)F)cc(C(F)(F)F)c3)NCCN12` (configuration not stated), the solubility (kinetic) came to 55.9 µg/mL (≈ 145 µM).

For the molecule `Nc1nc(Nc2ccccc2)nc(NCc2ccccc2)c1[N+](=O)[O-]`, the kinetic solubility worked out at 0.2 µg/mL (≈ 0.595 µM). This solubility kinetic lies about 280-fold lower than the previous one. `COC(=O)C1CCN(S(=O)(=O)Cc2ccccc2Cl)CC1` yielded a kinetic solubility above 49.8 µg/mL. Consider `Cc1nc2ccccc2c(=O)n1Cc1ccc([N+](=O)[O-])cc1`, for which the kinetic solubility was above 44.3 µg/mL. Under `S=c1[nH]c2cc(Cl)c3cccnc3c2o1` stands above 35.5 µg/mL; under `CC1CCCN(S(=O)(=O)c2cc(C(=O)NCc3ccco3)ccc2Cl)C1` (configuration not stated), 52.6 µg/mL (≈ 133 µM).

Molecule `Cc1ccc(-n2c(=O)[nH]c3c(oc4ccccc43)c2=O)cc1` registered a kinetic solubility of 38.8 µg/mL (≈ 133 µM).

The molecule `CC(CN1CCCC1)OC(=O)c1ccc(Cl)cc1Cl.Cl` (configuration not stated) gave a kinetic solubility above 50.8 µg/mL. `COc1ccc2ccn(S(=O)(=O)c3ccccc3)c2c1` returned a solubility (kinetic) of 2.9 µg/mL (≈ 10.1 µM).

`O=C(CSc1ncnc2sc3c(c12)CCCC3)NC1CCS(=O)(=O)C1` (configuration not stated) had a solubility (kinetic) of 18.6 µg/mL (≈ 46.8 µM). To `O=C(CCl)Nc1sccc1C(=O)c1ccccc1` belongs 3.6 µg/mL (≈ 12.9 µM); to `Cc1cc(C(=O)Nc2ccc(Br)cc2)c2ccccc2n1`, 0.5 µg/mL (≈ 1.47 µM).

Consider `O=C1C2=C(CCCC2)C(=O)N1CNc1ccccc1`, for which the solubility (kinetic) stood at 33 µg/mL (≈ 129 µM). Against the preceding molecule, the solubility kinetic is about 66-fold higher. To `COc1ccc(C(=O)O)cc1NCc1cccnc1` belongs 36.8 µg/mL (≈ 142 µM). Under `COn1c(=O)c(-c2ccc(F)cc2)[n+]([O-])c2ccccc21` stands above 42.9 µg/mL. `CC1CCC(NC(=O)c2ccc(COc3ccccc3)o2)CC1` (configuration not stated) had a kinetic solubility of 1.7 µg/mL (≈ 5.42 µM). To `Cc1csc(NC(=O)c2cc(=O)[nH]c3ccccc23)n1` belongs 10.5 µg/mL (≈ 36.8 µM); to `O=C(NC(=O)c1ccccc1)Nc1ccc(-c2cnco2)cc1`, below 0.2 µg/mL; to `Cc1cc(NC(=O)CSc2nnc(C)n2-c2ccccc2C)no1`, above 51.5 µg/mL. Under `CCn1c(O)c(C=NCc2ccccc2)sc1=S` stands below 0.3 µg/mL; under `Cc1cc(C2(O)C(=O)Nc3ccccc32)ccc1F` (configuration not stated), above 38.6 µg/mL. In turn, `Cc1cc(C)n2nc(C(=O)OCC(=O)NCc3ccc(F)cc3)nc2n1` yielded a solubility (kinetic) above 53.6 µg/mL. Under `COc1ccc(C(=O)OCC(=O)c2ccc(CNC(C)=O)s2)cc1` stands above 52.1 µg/mL; under `CCOc1ccc(NC(=S)N2CCCC2)cc1`, above 37.6 µg/mL; under `CCNC(=O)COc1ncnc2scc(-c3ccc(F)cc3)c12`, above 49.7 µg/mL. To `CCCC(=O)N(Cc1cc(=O)[nH]c2ccccc12)c1ccc(OC)cc1` belongs above 52.6 µg/mL. Molecule `O=C(c1cc([N+](=O)[O-])ccc1N1CCCC1)N1CCCC1` yielded a solubility (kinetic) above 43.4 µg/mL.

In turn, `O=C(c1ccccc1)c1nc2c(n1O)CCCCC2` displayed a kinetic solubility above 38.4 µg/mL. As to `O=S(=O)(Nc1ccccc1N1CCOCC1)c1c(F)cc(F)cc1Br`, the kinetic solubility is 2.3 µg/mL (≈ 5.31 µM). To `COC(=O)CSc1nc2ccccc2c(=O)n1Cc1ccccc1` belongs 0.7 µg/mL (≈ 2.06 µM); to `O=C(Nc1ccccc1N1CCOCC1)c1ccco1`, 35 µg/mL (≈ 129 µM). Under `CCOC(=O)c1c(C)[n+]([O-])c2ccc3c(non3O)c12` stands 8.7 µg/mL (≈ 31.4 µM).

The molecule `Cc1cc(N2CCN(C(=O)/C=C/C(=O)O)CC2)c2ccccc2n1` displayed a solubility (kinetic) of 48.6 µg/mL (≈ 149 µM).

`N/C(=N\O)c1ccccc1N1CCCCC1` came in with a kinetic solubility of 29.9 µg/mL (≈ 136 µM).

`CN(c1ccc(O)cc1)c1nc(-c2cccnc2)cs1` showed a solubility (kinetic) of 3.2 µg/mL (≈ 11.3 µM). `Cc1ccc(C(=O)NCC(c2ccc(F)cc2)N2CCOCC2)cc1` (configuration not stated) returned a kinetic solubility of 44.4 µg/mL (≈ 130 µM).

Broadly, the kinetic solubility is solubility judged after dilution from a stock solution rather than from solid.
